Data from paper PMC11788324, “4,6-Disubstituted pyrimidine-based microtubule affinity-regulating kinase 4 (MARK4) inhibitors: synthesis, characterization, in-vitro activity and in-silico studies” (Frontiers in Pharmacology, 2025).

What was measured:
[1] = parameters: method as in Pant et al., 2024; conditions: compared with donepezil; ref Pant et al., 2024; cited from earlier work
[2] = target: T1, MARK4 (Homo sapiens, UniProt Q96L34); assay: Fluorescence quenching of MARK4; format: binding; conditions: data not included
T1 sequence (Q96L34 1-752): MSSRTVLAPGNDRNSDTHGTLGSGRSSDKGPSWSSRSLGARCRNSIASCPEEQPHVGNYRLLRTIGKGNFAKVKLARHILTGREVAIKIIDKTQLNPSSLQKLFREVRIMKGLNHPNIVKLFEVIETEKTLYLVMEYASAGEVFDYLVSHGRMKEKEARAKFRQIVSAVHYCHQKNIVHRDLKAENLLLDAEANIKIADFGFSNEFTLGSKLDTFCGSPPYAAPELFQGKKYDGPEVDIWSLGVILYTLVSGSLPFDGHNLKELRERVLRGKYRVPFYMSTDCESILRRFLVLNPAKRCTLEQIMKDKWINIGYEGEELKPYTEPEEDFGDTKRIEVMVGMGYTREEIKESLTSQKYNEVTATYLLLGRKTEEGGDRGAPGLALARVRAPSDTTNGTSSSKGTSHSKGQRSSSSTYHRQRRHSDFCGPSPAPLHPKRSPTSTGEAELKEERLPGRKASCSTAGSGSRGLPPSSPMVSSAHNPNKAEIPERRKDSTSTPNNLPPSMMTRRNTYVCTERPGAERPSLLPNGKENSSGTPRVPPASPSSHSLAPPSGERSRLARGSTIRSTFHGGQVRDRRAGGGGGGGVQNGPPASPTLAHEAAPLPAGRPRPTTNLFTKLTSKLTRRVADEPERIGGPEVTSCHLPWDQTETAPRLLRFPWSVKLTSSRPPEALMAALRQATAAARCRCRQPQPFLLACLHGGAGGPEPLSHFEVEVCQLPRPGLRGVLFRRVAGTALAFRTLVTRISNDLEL
Text: MARKs, or microtubule-affinity regulating kinases, are a group of serine/threonine kinases found in mammals and other organisms ([Naz et al., 2013]). These kinases play a critical role in phosphorylating microtubule-associated proteins, which then go on to regulate important processes like cell cycle progression and cytoskeletal dynamics. These kinases are quite abundant in the human brain and are known to be key players in the development and progression of various diseases including cancer and ADs ([Alam et al., 2023]). Despite their high importance, there has been limited research on the development of synthetic small molecules (inhibitors) against MARK4 ([Li et al., 2020]; [Voura et al., 2022]). In the present study, we selected MARK4 as the target and assessed our compounds against it. The kinase inhibitory potential of the compounds against MARK4 was examined using an ATPase inhibition assay ([Yousuf et al., 2015]; [Yousuf et al., 2022]). […] Following this, attempts have been made to collect the fluorescence quenching of MARK4 in the presence of the best inhibitor (14). […] The rationale behind the behaviour is currently under investigation.

[3] = target: T1, MARK4; assay: MARK4 ATPase (malachite green) enzyme inhibition assay; format: biochemical; conditions: MARK4 5 μM, 1 hour at 25°C, triplicates
Description: The inhibitory potential of the synthesized compounds against MARK4 was analysed using the malachite green based enzyme inhibition assay. The malachite green kinase inhibition assay is a colorimetric technique designed to assess kinase activity by detecting the release of inorganic phosphate (Pi) during phosphorylation. When a kinase transfers a phosphate group from ATP to its substrate, Pi is generated as a byproduct. The malachite green reagent interacts with Pi to produce a green-colored complex, which can be quantified using a spectrophotometer. This assay is modified to evaluate enzyme inhibition by measuring the reduction in Pi release in the presence of potential inhibitors. […] The protein’s highest activity, MARK4 (ligand-free), was utilised as a reference, and various ligand concentrations were added to determine the IC50 value. […] Finally 96 well plates were filled with 100 μL of the reaction mixture, which was then scanned at 620 nm using a multiscan ELISA reader. […]
MARKs, or microtubule-affinity regulating kinases, are a group of serine/threonine kinases found in mammals and other organisms ([Naz et al., 2013]). […] In the present study, we selected MARK4 as the target and assessed our compounds against it. […] Following this, attempts have been made to collect the fluorescence quenching of MARK4 in the presence of the best inhibitor (14). […]

fluorescence quenching of MARK4 emission [2]	IC50 [3] [µM]	Compound	neuroprotective effects [1]
		Clc1ccc(Cc2ccnc(CCN3CCCCC3)n2)cc1 [a]	neuroprotective effects better than donepezil
did not show appreciable quenching	7.52 ± 0.33	O=S(=O)(c1cccc2ccccc12)N1CCN(c2cc(-c3ccsc3)ncn2)CC1 [Compound 14, 4-(4-(Naphthalen-1-ylsulfonyl)-piperazin-1-yl)-6-(thiophen-3-yl)-pyrimidine]	
	13 ± 0.63	COc1ccc(S(=O)(=O)N2CCN(c3cc(-c4ccsc4)ncn3)CC2)c(OC)c1 [Compound 9, 4-(4-((2,4-Dimethoxyphenyl)-sulfonyl)-piperazin-1-yl)-6-(thiophen-3-yl)-pyrimidine]	
